From ChEMBL document CHEMBL5131386, “Synthesis and biological evaluation of novel schisanhenol derivatives as potential hepatoprotective agents” (Eur J Med Chem, 2022)
Calls of active or inactive are those of the source. The calls are words filed in the database; no cut-off is given here.

How the values were obtained:
L02 [1] = assay: Hepatoprotective activity against concanavalin A induced liver injury in human HL7702 cells assessed as cell survival rate at 5 uM preincubated for 12 hrs followed by concanavalin A stimulation for 12 hrs by MTT assay (reference value: 51.37%); assay type: functional; details: time 24 hrs, read-out: Survival
L02 [2] = assay: Hepatoprotective activity against concanavalin A induced human HL7702 cell apoptosis assessed as nuclear morphological changes at 5 uM preincubated for 12 hrs followed by concanavalin A stimulation for 12 hrs by Hoechst 33342 staining based fluorescence microscopy; assay type: functional; details: time 24.0 hrs
L02 [3] = assay: Hepatoprotective activity against concanavalin A induced human HL7702 cell apoptosis assessed as decrease in cleaved caspase-3 level at 5 uM preincubated for 12 hrs followed by concanavalin A stimulation for 12 hrs by Western blot analysis; assay type: functional, cell-based; details: time 24.0 hrs
L02 [4] = assay: Hepatoprotective activity against concanavalin A induced human HL7702 cell apoptosis assessed as decrease in Bax expression level at 5 uM preincubated for 12 hrs followed by concanavalin A stimulation for 12 hrs by Western blot analysis; assay type: functional, cell-based; details: time 24.0 hrs
L02 [5] = assay: Hepatoprotective activity against concanavalin A induced human HL7702 cell apoptosis assessed as increase in Bcl-2 expression level at 5 uM preincubated for 12 hrs followed by concanavalin A stimulation for 12 hrs by Western blot analysis; assay type: functional, cell-based; details: time 24.0 hrs
L02 [6] = assay: Cytotoxicity against human HL7702 cells ssessed as cell survival rate at 5 uM for 12 hrs by MTT assay; assay type: toxicity, cell-based; details: l02, 12 h
L02 [7] = assay: Hepatoprotective activity against concanavalin A induced livery injury in human HL7702 cells assessed as decrease in STAT3 phosphorylation level at 5 uM preincubated for 12 hrs followed by concanavalin A stimulation for 12 hrs by Western blot analysis; assay type: functional, cell-based; details: time 24.0 hrs
L02 [8] = assay: Hepatoprotective activity against concanavalin A induced livery injury in human HL7702 cells assessed as increase in HO-1 expression level at 5 uM preincubated for 12 hrs followed by concanavalin A stimulation for 12 hrs by Western blot analysis; assay type: functional, cell-based; details: time 24.0 hrs
L02 [9] = assay: Hepatoprotective activity against concanavalin A induced livery injury in human HL7702 cells assessed as decrease in JAK2 phosphorylation level at 5 uM preincubated for 12 hrs followed by concanavalin A stimulation for 12 hrs by Western blot analysis; assay type: functional, cell-based; details: time 24.0 hrs
Mus musculus [10] = assay: Hepatoprotective activity against concanavalin A induced C57BL/6 mouse livery injury model assessed as decrease in STAT3 phosphorylation level at 5 mg/kg, ip once daily for 2 weeks followed by concanavalin A stimulation and measured after 12 hrs by Western blot analysis; assay type: functional, organism-based
Mus musculus [11] = assay: Hepatoprotective activity against concanavalin A induced C57BL/6 mouse livery injury model assessed as decrease in phosphorylated STAT3 level in liver at 5 mg/kg, ip once daily for 2 weeks followed by concanavalin A stimulation and measured after 12 hrs by DAB staining based immunohistological anlaysis; assay type: functional, organism-based
Mus musculus [12] = assay: Hepatoprotective activity against concanavalin A induced C57BL/6 mouse livery injury model assessed as decrease in serum ALT level at 5 mg/kg, ip once daily for 2 weeks followed by concanavalin A stimulation and measured after 12 hrs; assay type: functional, organism-based
Mus musculus [13] = assay: Hepatoprotective activity against concanavalin A induced C57BL/6 mouse livery injury model assessed as decrease in cleaved caspase 3 level at 5 mg/kg, ip once daily for 2 weeks followed by concanavalin A stimulation and measured after 12 hrs by Western blot analysis; assay type: functional, organism-based
Mus musculus [14] = assay: Hepatoprotective activity against concanavalin A induced C57BL/6 mouse livery injury model assessed as decrease in serum AST level at 5 mg/kg, ip once daily for 2 weeks followed by concanavalin A stimulation and measured after 12 hrs; assay type: functional, organism-based
Mus musculus [15] = assay: Hepatoprotective activity against concanavalin A induced C57BL/6 mouse livery injury model assessed as decrease in cleaved caspase-3 level in liver at 5 mg/kg, ip once daily for 2 weeks followed by concanavalin A stimulation and measured after 12 hrs by DAB staining based immunohistological anlaysis; assay type: functional, organism-based
Mus musculus [16] = assay: Hepatoprotective activity against concanavalin A induced C57BL/6 mouse livery injury model assessed as increase in Bcl-2 level at 5 mg/kg, ip once daily for 2 weeks followed by concanavalin A stimulation and measured after 12 hrs by Western blot analysis; assay type: functional, organism-based
Mus musculus [17] = assay: Hepatoprotective activity against concanavalin A induced C57BL/6 mouse livery injury model assessed as decrease in severity of liver damage at 5 mg/kg, ip once daily for 2 weeks followed by concanavalin A stimulation and measured after 12 hrs by H&E staining based […]; assay type: functional, organism-based
L02 [18] = assay: Hepatoprotective activity against concanavalin A induced livery injury in human HL7702 assessed as decrease in IL-6 expression level at 5 uM preincubated for 24 hrs followed by concanavalin A stimulation for 12 hrs by ELISA assay; assay type: functional, cell-based; details: time 36.0 hrs
L02 [19] = assay: Hepatoprotective activity against concanavalin A induced livery injury in human HL7702 assessed as decrease in IL-6 expression level at 5 uM preincubated for 12 hrs followed by concanavalin A stimulation for 12 hrs by Western blot analysis; assay type: functional, cell-based; details: time 24.0 hrs
Mus musculus [20] = assay: Hepatoprotective activity against concanavalin A induced C57BL/6 mouse livery injury model assessed as decrease in serum IL-6 level at 5 mg/kg, ip once daily for 2 weeks followed by concanavalin A stimulation and measured after 12 hrs by ELISA; assay type: functional, organism-based
Mus musculus [21] = assay: Hepatoprotective activity against concanavalin A induced C57BL/6 mouse livery injury model assessed as decrease in Bax level at 5 mg/kg, ip once daily for 2 weeks followed by concanavalin A stimulation and measured after 12 hrs by Western blot analysis; assay type: functional, organism-based
Mus musculus [22] = assay: Hepatoprotective activity against concanavalin A induced C57BL/6 mouse livery injury model assessed as decrease in JAK2 phosphorylation level at 5 mg/kg, ip once daily for 2 weeks followed by concanavalin A stimulation and measured after 12 hrs by Western blot analysis; assay type: functional, organism-based

COc1c(Cl)c2c(c(OC)c1OC)-c1c(c(Cl)c(OC)c(OC)c1OC(=O)c1cccnc1)CC(C)C(C)C2 (stereo unspecified)
viability at 5 µM (L02 [1]): 79.4%

COc1ccc(C(=O)Oc2c(OC)c(OC)c(Cl)c3c2-c2c(cc(OC)c(OC)c2OC)CC(C)C(C)C3)cc1 (stereo unspecified)
viability at 5 µM (L02 [1]): 70%

COc1c(Cl)c2c(c(OC)c1OC)-c1c(c(Cl)c(OC)c(OC)c1OC(=O)c1cccs1)CC(C)C(C)C2 (stereo unspecified)
viability at 5 µM (L02 [1]): 80.4%

COc1c(Cl)c2c(c(OC)c1OC)-c1c(c(Cl)c(OC)c(OC)c1OS(=O)(=O)Cc1ccccc1)CC(C)C(C)C2 (stereo unspecified)
viability at 5 µM (L02 [1]): 71.4%

COc1cc2c(c(OC)c1OC)-c1c(O)c(OC)c(OC)c(Cl)c1CC(C)C(C)C2 (stereo unspecified)
viability at 5 µM (L02 [1]): 72.5%

COc1cc2c(c(OC)c1OC)-c1c(c([N+](=O)[O-])c(OC)c(OC)c1OC(=O)/C=C/c1ccccc1)CC(C)C(C)C2 (stereo unspecified)
Activity (L02 [2]): Active
viability at 5 µM (L02 [1]): 97.4%
Activity (L02 [3]): Active
Activity (L02 [4]): Active
Activity (L02 [5]): Active
Activity (L02 [6]): Non-Toxic

COc1cc2c(c(OC)c1OC)-c1c(c(Cl)c(OC)c(OC)c1OCCCOC(=O)/C=C/c1ccccc1)CC(C)C(C)C2 (stereo unspecified)
viability at 5 µM (L02 [1]): 71%

COc1c(Cl)c2c(c(OC)c1OC)-c1c(c(Cl)c(OC)c(OC)c1OCCCOC(=O)C(CCSC)NC(=O)OC(C)(C)C)CC(C)C(C)C2 (stereo unspecified)
Activity (L02 [2]): Active
viability at 5 µM (L02 [1]): 90.8%
Activity (L02 [3]): Active
Activity (L02 [4]): Active
Activity (L02 [5]): Active
Activity (L02 [6]): Non-Toxic

COc1cc2c(c(OC)c1OC)-c1c(c([N+](=O)[O-])c(OC)c(OC)c1OC(=O)c1cccnc1)CC(C)C(C)C2 (stereo unspecified)
viability at 5 µM (L02 [1]): 49.9%

COc1cc2c(c(OC)c1OC)-c1c(c(Cl)c(OC)c(OC)c1OC(=O)c1cccnc1)CC(C)C(C)C2 (stereo unspecified)
Activity (L02 [2]): Active
Activity (L02 [7]): Active
viability at 5 µM (L02 [1]): 93.7%
Activity (L02 [8]): Active
Activity (L02 [3]): Active
Activity (L02 [4]): Active
Activity (L02 [9]): Active
Activity (L02 [5]): Active
Activity (L02 [6]): Non-Toxic

COc1c(Cl)c2c(c(OC)c1OC)-c1c(c(Cl)c(OC)c(OC)c1OCCCO)CC(C)C(C)C2 (stereo unspecified)
viability at 5 µM (L02 [1]): 67.1%

COc1cc2c(c(OC)c1OC)-c1c(c(Cl)c(OC)c(OC)c1OC(=O)CCl)CC(C)C(C)C2 (stereo unspecified)
viability at 5 µM (L02 [1]): 68.4%

COc1cc2c(c(OC)c1OC)-c1c(c(Cl)c(OC)c(OC)c1OC(=O)/C=C/c1ccccc1)CC(C)C(C)C2 (stereo unspecified)
Activity (L02 [2]): Active
Activity (L02 [7]): Active
Activity (Mus musculus [10]): Active
Activity (Mus musculus [11]): Active
viability at 5 µM (L02 [1]): 110%
Activity (Mus musculus [12]): Active
Activity (L02 [8]): Active
Activity (Mus musculus [13]): Active
Activity (Mus musculus [14]): Active
Activity (L02 [3]): Active
Activity (L02 [4]): Active
Activity (Mus musculus [15]): Active
Activity (Mus musculus [16]): Active
Activity (L02 [9]): Active
Activity (Mus musculus [17]): Active
Activity (L02 [5]): Active
Activity (L02 [6]): Non-Toxic
Activity (L02 [18]): Active
Activity (L02 [19]): Active
Activity (Mus musculus [20]): Active
Activity (Mus musculus [21]): Active
Activity (Mus musculus [22]): Active

COc1cc2c(c(OC)c1OC)-c1c(c(Cl)c(OC)c(OC)c1OC(=O)c1ccc(C(F)(F)F)cc1)CC(C)C(C)C2 (stereo unspecified)
viability at 5 µM (L02 [1]): 61.8%

COc1c(Cl)c2c(c(OC)c1OC)-c1c(c(Cl)c(OC)c(OC)c1OC(=O)/C=C/c1ccccc1)CC(C)C(C)C2 (stereo unspecified)
Activity (L02 [2]): Active
Activity (L02 [7]): Active
viability at 5 µM (L02 [1]): 89.7%
Activity (L02 [8]): Active
Activity (L02 [3]): Active
Activity (L02 [4]): Active
Activity (L02 [9]): Active
Activity (L02 [5]): Active
Activity (L02 [6]): Non-Toxic

COc1c(Cl)c2c(c(OC)c1OC)-c1c(c(Cl)c(OC)c(OC)c1OC(=O)c1ccc(C(F)(F)F)cc1)CC(C)C(C)C2 (stereo unspecified)
viability at 5 µM (L02 [1]): 65.1%

COc1cc2c(c(OC)c1OC)-c1c(c(N)c(OC)c(OC)c1OS(=O)(=O)c1ccc(C)cc1)CC(C)C(C)C2 (stereo unspecified)
Activity (L02 [2]): Active
viability at 5 µM (L02 [1]): 89%
Activity (L02 [3]): Active
Activity (L02 [4]): Active
Activity (L02 [5]): Active
Activity (L02 [6]): Non-Toxic

COc1cc2c(c(OC)c1OC)-c1c(O)c(OC)c(OC)c([N+](=O)[O-])c1CC(C)C(C)C2 (stereo unspecified)
viability at 5 µM (L02 [1]): 70.2%

COc1c(Cl)c2c(c(OC)c1OC)-c1c(c(Cl)c(OC)c(OC)c1OC(=O)c1ccc(Cl)cc1Cl)CC(C)C(C)C2 (stereo unspecified)
viability at 5 µM (L02 [1]): 68%

COC1=C(OC)C(OC)CC2=C1c1c(c([N+](=O)[O-])c(OC)c(OC)c1OCCCO)CC(C)C(C)C2 (stereo unspecified)
viability at 5 µM (L02 [1]): 73.1%

COc1c(Cl)c2c(c(OC)c1OC)-c1c(c(Cl)c(OC)c(OC)c1OC(=O)c1ccc([N+](=O)[O-])cc1)CC(C)C(C)C2 (stereo unspecified)
viability at 5 µM (L02 [1]): 59.4%

COc1c(O)c2c(c(Cl)c1OC)CC(C)C(C)Cc1c(Cl)c(OC)c(OC)c(OC)c1-2 (stereo unspecified)
viability at 5 µM (L02 [1]): 67.3%

COc1cc2c(c(OC)c1OC)-c1c(O)c(OC)c(OC)c(N)c1CC(C)C(C)C2 (stereo unspecified)
Activity (L02 [2]): Active
viability at 5 µM (L02 [1]): 97.1%
Activity (L02 [3]): Active
Activity (L02 [4]): Active
Activity (L02 [5]): Active
Activity (L02 [6]): Non-Toxic

COc1ccc(C(=O)Oc2c(OC)c(OC)c(Cl)c3c2-c2c(c(Cl)c(OC)c(OC)c2OC)CC(C)C(C)C3)cc1 (stereo unspecified)
viability at 5 µM (L02 [1]): 53.6%
